In US20090298887A1, “METHOD FOR IMPROVING HARVESTED SEED QUALITY” (Syngenta Corp Protection, Inc., priority 2004, published 2009):

What was measured:
soybean plants [1] = test: Warm germination test of seeds harvested from treated soybean plants; assay type: in vivo
Description: A preferred test of seed germination is a warm germination test because it is used for labeling purposes. Germination is defined as: “the emergence and development from the seed embryo of those essential structures which are indicative of the ability to produce a normal plant under favorable conditions.” The warm germination test reflects the stand producing potential of a seed lot under ideal planting conditions. In a typical warm germination test, 400 seeds from each seed lot are placed under moist conditions on blotters, rolled towels, or sand and maintained at 77° F. for about seven days. At the end of this period the seedlings are categorized as normal, abnormal, or diseased, and dead or hard seeds. The percentage germination is calculated from the number of normal seedlings from the total number of seeds evaluated.
(§1) In the method of the present invention, seeds harvested from plants treated with a foliar insecticide, or seeds harvested from plants whose pre-planted seeds were treated with a seed treatment insecticide, or seeds harvested from plants that underwent both treatments, both as the pre-planted seed (seed treatment) and as the post emergent plant (foliar insecticide treatment) were tested in warm germination and accelerated aging tests to determine the health and quality of the harvested seeds. In accordance with the germination tests, it was discovered that seed-producing plants resulting from the growers' application of insecticides at the seed stage, the foliar stage, and both, not only were healthier plants, but they also produced healthier seeds.
(§2) Germination studies were conducted on soybean plants comparing plants treated with a combination of fungicides with plants (1) wherein only insecticidal seed treatment was applied; (2) wherein insecticidal seed treatment was applied followed by foliar insecticidal treatment on the resulting plant; and (3) wherein only foliar insecticide was applied to a plant grown from untreated seed.

soybean plants [2] = test: Accelerated aging test of seeds harvested from treated soybean plants; assay type: in vivo
Protocol: Another germination test, the accelerated aging test (AA), estimates the carryover potential of a seed lot in warehouse storage. The seeds are exposed to high temperatures and high relative humidity for short periods of time that cause seed deterioration. Seeds are suspended over water in a chamber for a period of time, for example 72 hours (wheat and soybeans) or 96 hours (corn), then tested in a standard warm germination test. This test only is usually used on seed whose longevity was in question.
as §1, §2

[3] = foliar insecticide only (2 applications), untreated seed
[4] = insecticidal seed treatment only, 30 g
[5] = insecticidal seed treatment only, 50 g

| Structure (SMILES) | Warm Germination (+/−Std. Error) (soybean plants [1]; [3]) | Warm Germination (+/−Std. Error) (soybean plants [1]; foliar insecticide only (8/8)) | Warm Germination (+/−Std. Error) (soybean plants [1]; foliar insecticide only (8/12)) | Accelerated Aging (+/−Std. Error) (soybean plants [2]; [3]) | Accelerated Aging (+/−Std. Error) (soybean plants [2]; foliar insecticide only (8/8)) | Accelerated Aging (+/−Std. Error) (soybean plants [2]; foliar insecticide only (8/12)) | Warm Germination (+/−Std. Error) (soybean plants [1]; [4]) | Warm Germination (+/−Std. Error) (soybean plants [1]; [5]) | Accelerated Aging (+/−Std. Error) (soybean plants [2]; [4]) | Accelerated Aging (+/−Std. Error) (soybean plants [2]; [5]) |
| --- | --- | --- | --- | --- | --- | --- | --- | --- | --- | --- |
| CC1(C)[C@H](C(=O)O[C@H](C#N)c2cccc(Oc3ccccc3)c2)[C@@H]1/C=C(\Cl)C(F)(F)F (racemic) [lambda cyhalothrin] | 92.5 (0.70) | 92.9 (0.81) | 91.1 (0.81) | 89.3 (1.06) | 89.7 (1.23) | 86.5 (1.23) | – | – | – | – |
| CN1COCN(Cc2cnc(Cl)s2)/C1=N\[N+](=O)[O-] [Thiamethoxam, thiamethoxam] | – | – | – | – | – | – | 91.4 (0.63) | 91.6 (0.65) | 86.7 (0.95) | 90.4 (0.98) |
